Laboratory results from ChEMBL document CHEMBL5674871, “EZH2 is required for mouse oocyte meiotic maturation by interacting with and stabilizing spindle assembly checkpoint protein BubRI” (Nucleic Acids Res, 2016).
Activity calls are given as the source filed them. The calls are words filed in the database; no cut-off is given here.

Key:
Oocyte [1] = test: Effect on EZH2 protein expression in ICR mouse oocyte at 5 uM for 14 hrs by Western blot analysis; assay type: functional, cell-based
[2] = molecular target: Histone-lysine N-methyltransferase EZH2 (Mus musculus) (UniProt Q61188); test: Inhibition of EZH2 in ICR mouse oocyte assessed as EED protein level at 5 uM by Western blot analysis; assay type: cell-based
[3] = molecular target: Histone-lysine N-methyltransferase EZH2 (Mus musculus) (UniProt Q61188); test: Inhibition of EZH2 in ICR mouse oocyte assessed as SUZ12 protein level at 5 uM by Western blot analysis; assay type: cell-based
Oocyte [4] = test: Effect on ICR mouse oocyte meiotic maturation assessed as PB1 extrusions at 5 uM by immunofluorescence analysis; assay type: functional, cell-based
[5] = molecular target: Histone-lysine N-methyltransferase EZH2 (Mus musculus) (UniProt Q61188); test: Inhibition of EZH2 in ICR mouse oocyte assessed as decrease in H3K27 trimethylation level at 5 uM by Immunofluorescence analysis; assay type: cell-based
[6] = molecular target: Histone-lysine N-methyltransferase EZH2 (Mus musculus) (UniProt Q61188); test: Inhibition of EZH2 in ICR mouse oocyte assessed as effect on H3 level at 5 uM by Immunofluorescence analysis; assay type: cell-based
[7] = molecular target: Histone-lysine N-methyltransferase EZH2 (Mus musculus) (UniProt Q61188); test: Inhibition of EZH2 methyltransferase activity in ICR mouse oocyte assessed as decrease in H3K9me2 level at 5 uM by Immunofluorescence analysis; assay type: cell-based
Oocyte [8] = test: Effect on EZH2 protein expression in ICR mouse oocyte at 1 uM for 14 hrs by Western blot analysis; assay type: functional, cell-based
[9] = molecular target: Histone-lysine N-methyltransferase EZH2 (Mus musculus) (UniProt Q61188); test: Inhibition of EZH2 in ICR mouse oocyte assessed as EED protein level at 1 uM by Western blot analysis; assay type: cell-based
[10] = molecular target: Histone-lysine N-methyltransferase EZH2 (Mus musculus) (UniProt Q61188); test: Inhibition of EZH2 in ICR mouse oocyte assessed as SUZ12 protein level at 1 uM by Western blot analysis; assay type: cell-based
[11] = molecular target: Histone-lysine N-methyltransferase EZH2 (Mus musculus) (UniProt Q61188); test: Inhibition of EZH2 methyltransferase activity in ICR mouse oocyte assessed as decrease in H3K27 trimethylation level at 1 uM by Immunofluorescence analysis; assay type: cell-based
[12] = molecular target: Histone-lysine N-methyltransferase EZH2 (Mus musculus) (UniProt Q61188); test: Inhibition of EZH2 in ICR mouse oocyte assessed as effect on H3 level at 1 uM by Immunofluorescence analysis; assay type: cell-based
[13] = molecular target: Histone-lysine N-methyltransferase EZH2 (Mus musculus) (UniProt Q61188); test: Inhibition of EZH2 methyltransferase activity in ICR mouse oocyte assessed as effect on H3K9me2 level at 1 uM by Immunofluorescence analysis; assay type: cell-based
Oocyte [14] = test: Effect on ICR mouse oocyte meiotic maturation assessed as PB1 extrusions at 1 uM by immunofluorescence analysis; assay type: functional, cell-based
Oocyte [15] = test: Effect on ICR mouse oocyte meiotic maturation assessed as abnormal polar bodies extrusions at 1 uM after 14 hrs by immunofluorescence analysis; assay type: functional, cell-based

Chain of Histone-lysine N-methyltransferase EZH2 (Mus musculus) (Q61188 whole entry): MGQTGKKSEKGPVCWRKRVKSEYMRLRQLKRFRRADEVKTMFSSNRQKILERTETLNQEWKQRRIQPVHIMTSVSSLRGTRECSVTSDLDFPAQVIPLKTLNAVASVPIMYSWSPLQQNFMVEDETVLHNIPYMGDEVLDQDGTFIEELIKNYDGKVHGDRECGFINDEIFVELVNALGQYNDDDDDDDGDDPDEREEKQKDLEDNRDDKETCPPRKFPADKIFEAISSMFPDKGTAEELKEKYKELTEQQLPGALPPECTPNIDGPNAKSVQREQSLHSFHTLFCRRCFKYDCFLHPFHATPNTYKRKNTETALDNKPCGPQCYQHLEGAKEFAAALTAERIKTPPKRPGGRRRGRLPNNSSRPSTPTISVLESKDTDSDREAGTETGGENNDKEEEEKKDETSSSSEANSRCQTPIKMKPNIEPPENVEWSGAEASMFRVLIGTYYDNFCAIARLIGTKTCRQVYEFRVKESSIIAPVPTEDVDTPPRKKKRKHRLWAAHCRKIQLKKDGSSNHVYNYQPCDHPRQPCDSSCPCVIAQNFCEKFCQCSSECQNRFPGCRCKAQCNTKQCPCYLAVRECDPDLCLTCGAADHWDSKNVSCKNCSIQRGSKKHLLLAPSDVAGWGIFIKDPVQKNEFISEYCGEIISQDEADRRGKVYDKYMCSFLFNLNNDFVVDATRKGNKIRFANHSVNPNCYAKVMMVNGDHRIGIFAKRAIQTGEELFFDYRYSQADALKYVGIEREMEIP

Compound | Activity (Oocyte [1]) | inhibition [2] | inhibition [3] | Activity (Oocyte [4]) | inhibition [5] | inhibition [6] | inhibition [7] | Activity (Oocyte [8]) | inhibition [9] | inhibition [10] | inhibition [11] | inhibition [12] | inhibition [13] | Activity (Oocyte [14]) | Activity (Oocyte [15])
Nc1nccc2c1ncn2[C@@H]1C=C(CO)[C@@H](O)[C@H]1O | inactive | inactive | inactive | inactive | Active | inactive | Active |  |  |  |  |  |  |  | 
CCCc1cc(C)[nH]c(=O)c1CNC(=O)c1cc(-c2ccnc(N3CCN(C)CC3)c2)cc2c1cnn2C(C)C |  |  |  |  |  |  |  | inactive | inactive | inactive | Active | inactive | inactive | inactive | Active
